Data: US9115147B2, “Tricyclic derivatives and their pharmaceutical use and compositions” (Cephalon, Inc., priority 2009, dated 2015)
Where two headings read alike, the source gives them in different places.

Target: T1, human 5-HT6 receptor (Homo sapiens, UniProt P50406)
T1 construct: host or cells: CHO-K1 cells, stably transfected; membranes prepared in house
Assay: Human 5-HT6 Receptor Binding Assay ([3H]LSD, scintillation beads)
Description: Human 5-HT6 Receptor Binding Assay
Membranes were prepared from CHO-K1 cells stably transfected with the human 5-HT6 receptor (Euroscreen; ES-316-C). The cells were grown in Gibco Advanced DMEM-F12 (Cat#12634010) containing 2% dialyzed FBS (Hyclone Cat#SH30079.03). The cells were harvested in phosphate buffered saline (PBS) containing 0.1 mM EDTA and pelleted by centrifugation (1000×g), the supernatant was discarded and the pellets were stored at −80° C. prior to membrane preparation. Membranes were prepared as previously described (J Bio Chem. 1992, 267 (14) 9844-51). Briefly, frozen cell pellet was resuspended in a lysis buffer containing 5 mM Tris-HCl (pH 7.5), 5 mM EDTA and 1 complete EDTA-free protease inhibitor tablet (Roche Applied Science, Indianapolis, Ind.) per 50 mL buffer, and homogenized with a tissue homogenizer. The cell lysate was then centrifuged at 40,000×g for 30 min at 4° C. to collect the membranes. The membrane pellets were washed in membrane buffer (50 mM Tris-HCl (pH 7.5), 0.6 mM EDTA, 5 mM MgCl2, 1 complete EDTA-free protease inhibitor tablet per 50 mL buffer) using a tissue homogenizer. The membranes were centrifuged at 40,000×g for 30 min at 4° C. and the pellets were resuspended in membrane buffer containing 250 mM sucrose, and protein concentration was determined using the Coomassie Plus kit (Pierce Biotechnology, Rockford, Ill.).
Membranes prepared from cells expressing recombinant human 5-HT6 receptor (h5-HT6) were resuspended in assay buffer containing 50 mM Tris HCl, (pH7.4), 4 mM CaCl2, 10 μg/mL saponin, and 0.1% (w/v) ascorbic acid. Membranes were preincubated using 1.75 μg membrane protein and 0.25 mg FlashBlue scintillation beads (PerkinElmer catalogue #FB001) per well at 4° C. for 30 min. […] Test compounds or assay controls for total and non-specific binding were diluted in DMSO as 100× solutions and serially diluted by half log concentrations on a Perkin Elmer JANUS Automated Workstation. Serotonin (10 μM final concentration) was used to determine non-specific binding in the assay. Plates were read using the Microbeta Trilux 1450 LSC and luminescence counter. Data were analyzed by nonlinear […] using the dose-response equation (variable slope) to calculate IC50 in XLfit4 (ID Business Solutions Inc.): y=(Bottom+((Top−Bottom)/(1+((IC50/x)^Hill slope))))
Ki value was then calculated according to the Cheng-Prusoff method using the equation below (Cheng and Prusoff, 1973): Ki, app=IC50/(1+([radioligand]/Kd))

[1] = Human 5-HT6 Ki app (nM), membranes of CHO-K1 cells with recombinant human 5-HT6 receptor, 4 nM [3H]LSD, Cheng-Prusoff
[2] = read-out: Human 5-HT6 Ki app; membranes of CHO-K1 cells with recombinant human 5-HT6 receptor, 4 nM [3H]LSD, Cheng-Prusoff
[3] = membranes of CHO-K1 cells with recombinant human 5-HT6 receptor, 4 nM [3H]LSD, Cheng-Prusoff; read-out: Human 5-HT6 Ki app

T1 sequence (P50406 whole entry): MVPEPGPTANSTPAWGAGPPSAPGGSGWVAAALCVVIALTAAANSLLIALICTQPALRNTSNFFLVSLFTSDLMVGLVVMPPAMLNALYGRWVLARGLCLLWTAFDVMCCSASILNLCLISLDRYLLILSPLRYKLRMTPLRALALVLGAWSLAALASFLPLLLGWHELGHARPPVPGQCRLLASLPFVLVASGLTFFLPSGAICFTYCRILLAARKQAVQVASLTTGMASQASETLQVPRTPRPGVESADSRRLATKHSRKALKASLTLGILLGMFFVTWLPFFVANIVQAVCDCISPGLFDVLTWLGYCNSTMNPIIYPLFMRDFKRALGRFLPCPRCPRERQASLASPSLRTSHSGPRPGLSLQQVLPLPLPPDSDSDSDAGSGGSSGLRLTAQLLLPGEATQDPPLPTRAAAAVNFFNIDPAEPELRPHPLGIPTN

| SMILES | Ki [3] [nM] | further results |
| --- | --- | --- |
| Cc1cccc(S(=O)(=O)c2ccc3c(c2)OCC2NCCC32)n1 (single isomer, unassigned) [Example 23, 7-[(6-methylpyridin-2-yl)sulfonyl]-1,2,3,3a,4,9b-hexahydrochromeno[3,4-b]pyrrole] |  | Ki [1]: < 500 nM |
| Cc1cccc(S(=O)(=O)c2ccc3c(c2)OCC2NCCC32)n1 (single isomer, unassigned) [Example 24, 7-[(6-methylpyridin-2-yl)sulfonyl]-1,2,3,3a,4,9b-hexahydrochromeno[3,4-b]pyrrole] |  | Ki [2]: < 500 nM |
| CC(C)Oc1cc(F)cc(S(=O)(=O)c2ccc3c(c2)OCC2NCCC32)c1 (single isomer, unassigned) [Example 27, 7-{[3-fluoro-5-(propan-2-yloxy)phenyl]sulfonyl}-1,2,3,3a,4,9b-hexahydrochromeno[3,4-b]pyrrole] | < 500 |  |
| O=S(=O)(c1cncc(Br)c1)c1ccc2c(c1)OCC1NCCC21 (single isomer, unassigned) [Example 28, 7-[(5-bromopyridin-3-yl)sulfonyl]-1,2,3,3a,4,9b-hexahydrochromeno[3,4-b]pyrrole] |  | Ki [1]: < 500 nM |
| O=S(=O)(c1cncc(F)c1)c1ccc2c(c1)OCC1NCCC21 (single isomer, unassigned) [Example 29, 7-[(5-fluoropyridin-3-yl)sulfonyl]-1,2,3,3a,4,9b-hexahydrochromeno[3,4-b]pyrrole] |  | Ki [1]: < 500 nM |
| O=S(=O)(c1cncc(Cl)c1)c1ccc2c(c1)OCC1NCCC21 (single isomer, unassigned) [Example 30, 7-[(5-chloropyridin-3-yl)sulfonyl]-1,2,3,3a,4,9b-hexahydrochromeno[3,4-b]pyrrole] |  | Ki [1]: < 500 nM |
| O=S(=O)(c1cncc(Br)c1)c1ccc2c(c1)OCC1NCCC21 (single isomer, unassigned) [Example 31, 7-[(5-bromopyridin-3-yl)sulfonyl]-1,2,3,3a,4,9b-hexahydrochromeno[3,4-b]pyrrole] |  | Ki [2]: < 500 nM |
| O=S(=O)(c1cncc(F)c1)c1ccc2c(c1)OCC1NCCC21 (single isomer, unassigned) [Example 32, 7-[(5-fluoropyridin-3-yl)sulfonyl]-1,2,3,3a,4,9b-hexahydrochromeno[3,4-b]pyrrole] |  | Ki [1]: > 1000 nM |
| COc1cncc(S(=O)(=O)c2ccc3c(c2)OCC2NCCC32)c1 (single isomer, unassigned) [Example 33, 7-[(5-methoxypyridin-3-yl)sulfonyl]-1,2,3,3a,4,9b-hexahydrochromeno[3,4-b]pyrrole] |  | Ki [1]: < 500 nM |
| O=S(=O)(c1cncc(Cl)c1)c1ccc2c(c1)OCC1NCCC21 (single isomer, unassigned) [Example 34, 7-[(5-chloropyridin-3-yl)sulfonyl]-1,2,3,3a,4,9b-hexahydrochromeno[3,4-b]pyrrole] |  | Ki [2]: < 500 nM |
| COc1cncc(S(=O)(=O)c2ccc3c(c2)OCC2NCCC32)c1 (single isomer, unassigned) [Example 35, 7-[(5-methoxypyridin-3-yl)sulfonyl]-1,2,3,3a,4,9b-hexahydrochromeno[3,4-b]pyrrole] |  | Ki [1]: > 1000 nM |
| COc1cc(F)cc(S(=O)(=O)c2ccc3c(c2)OCC2NCCC32)c1 (single isomer, unassigned) [Example 36, 7-[(3-fluoro-5-methoxyphenyl)sulfonyl]-1,2,3,3a,4,9b-hexahydrochromeno[3,4-b]pyrrole] | < 500 |  |
| O=S(=O)(c1ccc2c(c1)OCC1NCCC21)c1cccc2c1CCO2 (single isomer, unassigned) [Example 37, 7-(2,3-dihydro-1-benzofuran-4-ylsulfonyl)-1,2,3,3a,4,9b-hexahydrochromeno[3,4-b]pyrrole] | < 500 |  |

Further lines, with some results ahead:

| Ki [3] [nM] | SMILES | further results |
| --- | --- | --- |
| < 500 | CN(C)C(=O)c1cccc(S(=O)(=O)c2ccc3c(c2)OC[C@H]2NCC[C@@H]32)c1 (single isomer, unassigned) [Example 38] |  |
| < 500 | CC(C)COc1cc(F)cc(S(=O)(=O)c2ccc3c(c2)OCC2NCCC32)c1 (single isomer, unassigned) [Example 39, 7-{[3-fluoro-5-(2-methylpropoxy)phenyl]sulfonyl}-1,2,3,3a,4,9b-hexahydrochromeno[3,4-b]pyrrole] |  |
| < 500 | CCOc1cc(F)cc(S(=O)(=O)c2ccc3c(c2)OCC2NCCC32)c1 (single isomer, unassigned) [Example 40, 7-[(3-ethoxy-5-fluorophenyl)sulfonyl]-1,2,3,3a,4,9b-hexahydrochromeno[3,4-b]pyrrole] |  |
| < 500 | O=S(=O)(c1ccc2c(c1)OCC1NCCC21)c1cccc(F)c1F (single isomer, unassigned) [Example 41, 7-[(2,3-difluorophenyl)sulfonyl]-1,2,3,3a,4,9b-hexahydrochromeno[3,4-b]pyrrole] |  |
| < 500 | O=S(=O)(c1ccc2c(c1)OCC1NCCC21)c1cc(F)cc(F)c1F (single isomer, unassigned) [Example 42, 7-[(2,3,5-trifluorophenyl)sulfonyl]-1,2,3,3a,4,9b-hexahydrochromeno[3,4-b]pyrrole] |  |
| < 500 | CC(C)Oc1cc(F)cc(S(=O)(=O)c2ccc3c(c2)OCC2NCCC32)c1 (single isomer, unassigned) [Example 43, 7-{[3-fluoro-5-(propan-2-yloxy)phenyl]sulfonyl}-1,2,3,3a,4,9b-hexahydrochromeno[3,4-b]pyrrole] |  |
| < 500 | COc1cc(F)cc(S(=O)(=O)c2ccc3c(c2)OCC2NCCC32)c1 (single isomer, unassigned) [Example 44, 7-[(3-fluoro-5-methoxyphenyl)sulfonyl]-1,2,3,3a,4,9b-hexahydrochromeno[3,4-b]pyrrole] |  |
| < 500 | O=S(=O)(c1ccc2c(c1)OCC1NCCC21)c1cccc2c1CCO2 (single isomer, unassigned) [Example 45, 7-(2,3-dihydro-1-benzofuran-4-ylsulfonyl)-1,2,3,3a,4,9b-hexahydrochromeno[3,4-b]pyrrole] |  |
| < 500 | CN(C)C(=O)c1cccc(S(=O)(=O)c2ccc3c(c2)OC[C@@H]2NCC[C@H]32)c1 (single isomer, unassigned) [Example 46] |  |
| < 500 | CC(C)COc1cc(F)cc(S(=O)(=O)c2ccc3c(c2)OCC2NCCC32)c1 (single isomer, unassigned) [Example 47, 7-{[3-fluoro-5-(2-methylpropoxy)phenyl]sulfonyl}-1,2,3,3a,4,9b-hexahydrochromeno[3,4-b]pyrrole] |  |
| < 500 | CCOc1cc(F)cc(S(=O)(=O)c2ccc3c(c2)OCC2NCCC32)c1 (single isomer, unassigned) [Example 48, 7-[(3-ethoxy-5-fluorophenyl)sulfonyl]-1,2,3,3a,4,9b-hexahydrochromeno[3,4-b]pyrrole] |  |
| < 500 | O=S(=O)(c1ccc2c(c1)OCC1NCCC21)c1cccc(F)c1F (single isomer, unassigned) [Example 49, 7-[(2,3-difluorophenyl)sulfonyl]-1,2,3,3a,4,9b-hexahydrochromeno[3,4-b]pyrrole] |  |
| < 500 | O=S(=O)(c1ccc2c(c1)OCC1NCCC21)c1cc(F)cc(F)c1F (single isomer, unassigned) [Example 50, 7-[(2,3,5-trifluorophenyl)sulfonyl]-1,2,3,3a,4,9b-hexahydrochromeno[3,4-b]pyrrole] |  |
| < 500 | O=S(=O)(c1cncc(C(F)(F)F)c1)c1ccc2c(c1)OCC1NCCC21 (single isomer, unassigned) [Example 51, 7-{[5-(trifluoromethyl)pyridin-3-yl]sulfonyl}-1,2,3,3a,4,9b-hexahydrochromeno[3,4-b]pyrrole] |  |
| 500 to 1000 | O=S(=O)(c1cncc(C(F)(F)F)c1)c1ccc2c(c1)OCC1NCCC21 (single isomer, unassigned) [Example 52, 7-{[5-(trifluoromethyl)pyridin-3-yl]sulfonyl}-1,2,3,3a,4,9b-hexahydrochromeno[3,4-b]pyrrole] |  |
| < 500 | O=S(=O)(c1ccccc1)c1ccc2c(c1)C1CCNC1CO2 (single isomer, unassigned) [Example 53, 8-(phenylsulfonyl)-1,2,3,3a,4,9b-hexahydrochromeno[3,4-b]pyrrole] |  |
| < 500 | O=S(=O)(c1ccccc1)c1ccc2c(c1)C1CCNC1CO2 (single isomer, unassigned) [Example 54, 8-(phenylsulfonyl)-1,2,3,3a,4,9b-hexahydrochromeno[3,4-b]pyrrole] |  |
